16 molecules from ChEMBL document CHEMBL4311990, “Synthesis, biological activity, and mechanism of action of new 2-pyrimidinyl hydrazone and N-acylhydrazone derivatives, a potent and new classes of antileishmanial agents” (Eur J Med Chem, 2019) can be followed below.

Data set [1] is described as follows: Cytotoxicity against sodium thioglycolate-stimulated BALB/c mouse peritoneal macrophages measured after 72 hrs. In kind it is cell-based, Peritoneal macrophage.
For data set [2], the system named is Leishmania amazonensis. Put plainly: Antileishmanial activity against GFP-expressing Leishmania amazonensis MHOM/BR/75/Josefa intracellular amastigotes infected in murine peritoneal macrophages incubated for 72 hrs by spectrofluorimetry analysis. It is filed as functional, organism-based.
The nature of data set [3]: Selectivity index, ratio of CC50 for BALB/c mouse peritoneal macrophages to IC50 for GFP-expressing Leishmania amazonensis MHOM/BR/75/Josefa intracellular amastigotes infected in murine peritoneal macrophages. It is filed as toxicity, cell-based. Particulars: read-out: Ratio CC50/IC50.
In data set [4] the test system is Leishmania amazonensis. Nature of the data set: Antileishmanial activity against wild type Leishmania amazonensis IFLA/BR/67/PH8 promastigotes assessed as parasite viability incubated for 72 hrs by MTT assay. In kind it is functional, organism-based. The settings on record: IFLA/BR/67/PH8, 72 h. In general terms: Tetrazolium dyes change colour on reduction, which living cells bring about.

The subject of data set [5] is Leishmania amazonensis. Nature of the data set: Induction of mitochondrial membrane depolarization in wild type Leishmania amazonensis IFLA/BR/67/PH8 promastigotes assessed as reduction in ratio of […] at 48.56 uM measured after 72 hrs by JC-1 probe based spectrofluorimetry analysis relative to control. The arrangement: scale not given: the % may be the effect or the level left. It is filed as functional.

In data set [6] the test system is Leishmania amazonensis. Nature of the data set: Induction of mitochondrial membrane depolarization in wild type Leishmania amazonensis IFLA/BR/67/PH8 promastigotes assessed as reduction in ratio of […] at 24.28 uM measured after 72 hrs by JC-1 probe based spectrofluorimetry analysis relative to control. In kind it is functional. The arrangement: scale not given: the % may be the effect or the level left.

Data set [7] relates to Leishmania amazonensis. Put plainly: Induction of ROS generation in wild type Leishmania amazonensis IFLA/BR/67/PH8 promastigotes assessed as increase in ROS level by measuring fluorescence intensity at 48.56 uM measured after 24 hrs by H2DCFDA probe based fluorimetry analysis relative to control. It is filed as functional.
The subject of data set [8] is Leishmania amazonensis. Nature of the data set: Induction of mitochondrial membrane depolarization in wild type Leishmania amazonensis IFLA/BR/67/PH8 promastigotes assessed as reduction in fluorescence intensity at 48.56 uM measured after 72 hrs by Mitotracker red staining based spectrofluorimetry analysis relative to control. In kind it is functional. The arrangement: scale not given: the % may be the effect or the level left.

Data set [9] deals with Leishmania amazonensis. Put plainly: Induction of ROS generation in wild type Leishmania amazonensis IFLA/BR/67/PH8 promastigotes assessed as increase in ROS level by measuring fluorescence intensity at 24.28 uM measured after 24 hrs by H2DCFDA probe based fluorimetry analysis relative to control. It is filed as functional.
For data set [10], the system named is Leishmania amazonensis. Put plainly: Induction of mitochondrial membrane depolarization in wild type Leishmania amazonensis IFLA/BR/67/PH8 promastigotes assessed as reduction in fluorescence intensity at 24.28 uM measured after 72 hrs by Mitotracker red staining based spectrofluorimetry analysis relative to control. It is filed as functional. The arrangement: scale not given: the % may be the effect or the level left.

For data set [11], the system named is Leishmania amazonensis. Nature of the data set: Induction of change in plasma membrane integrity in wild type Leishmania amazonensis IFLA/BR/67/PH8 promastigotes assessed as increase in fluorescence intensity at 48.56 uM measured after 24 hrs by propidium iodide staining based spectrofluorimetry analysis relative to control. In kind it is functional.
Data set [12] relates to Leishmania amazonensis. Put plainly: Induction of change in plasma membrane integrity in wild type Leishmania amazonensis IFLA/BR/67/PH8 promastigotes assessed as increase in fluorescence intensity at 24.28 uM measured after 24 hrs by propidium iodide staining based spectrofluorimetry analysis relative to control. It is filed as functional.
Data set [13] relates to Leishmania amazonensis. Nature of the data set: Effect on plasma membrane integrity in wild type Leishmania amazonensis IFLA/BR/67/PH8 promastigotes assessed as increase in fluorescence intensity at 9.66 to 19.32 uM measured after 24 hrs by propidium iodide staining based spectrofluorimetry analysis. In kind it is functional, organism-based.
Data set [14] deals with Leishmania amazonensis. Put plainly: Induction of mitochondrial membrane depolarization in wild type Leishmania amazonensis IFLA/BR/67/PH8 promastigotes assessed as reduction in ratio of […] at 19.32 uM measured after 72 hrs by JC-1 based spectrofluorimetry analysis relative to control. In kind it is functional. The arrangement: scale not given: the % may be the effect or the level left.

For data set [15], the system named is Leishmania amazonensis. Put plainly: Induction of mitochondrial membrane depolarization in wild type Leishmania amazonensis IFLA/BR/67/PH8 promastigotes assessed as reduction in fluorescence intensity at 19.32 uM measured after 72 hrs by Mitotracker red staining based spectrofluorimetry analysis relative to control. In kind it is functional. The arrangement: scale not given: the % may be the effect or the level left.

The test system of data set [16] is Leishmania amazonensis. Nature of the data set: Induction of ROS generation in wild type Leishmania amazonensis IFLA/BR/67/PH8 promastigotes assessed as increase in ROS level by measuring fluorescence intensity at 19.32 uM measured after 24 hrs by H2DCFDA probe based fluorimetry analysis relative to control. In kind it is functional.
Data set [17] relates to Leishmania amazonensis. Put plainly: Induction of ROS generation in wild type Leishmania amazonensis IFLA/BR/67/PH8 promastigotes assessed as increase in ROS level by measuring fluorescence intensity at 9.66 uM measured after 24 hrs by H2DCFDA probe based fluorimetry analysis relative to control. It is filed as functional.

Activity calls are given as the source filed them. No cut-off for these calls is given here. Where only a bound is given, the exact number is not on record here.

The term CC50 denotes the concentration at which the toxic effect on the cells reaches its halfway point. The IC50 is the midpoint of a concentration-inhibition curve. Molecule `O=[N+]([O-])c1ccc(O)c(/C=N/Nc2ncccn2)c1` returned a cytotoxic concentration (CC50) at 72 h in data set [1] of 23.8 µM. Moreover, the IC50 came out at 10.1 µM in the data set with Leishmania amazonensis [2] and 10.5 µM in the data set on Leishmania amazonensis [4]. The selectivity ratio in data set [3] amounted to 2.36.
For `O=C(N/N=C/c1cc([N+](=O)[O-])ccc1O)c1ncccn1`, in that order: 63.4 µM, 69.1 µM, 29 µM and 0.91.
Turning to `O=C(N/N=C/c1cccc(O)c1O)c1ncccn1`, the CC50 at 72 h in data set [1] was greater than 150 µM. Further, the figures for the IC50 with Leishmania amazonensis [2] and in the data set with Leishmania amazonensis [4] were 33.9 µM and 27.4 µM, respectively. In addition, the selectivity ratio in data set [3] is greater than 4.42.
Taken in the same sequence, the figures for `Cc1ccc(/C=N/Nc2ncccn2)c(O)c1` were 54.8 µM, 52.1 µM, 56 µM and 1.05.
`Cc1ccc(/C=N/NC(=O)c2ncccn2)c(O)c1` displayed a cytotoxic concentration (CC50) at 72 h in data set [1] greater than 150 µM. In addition, the values for the IC50 in the data set on Leishmania amazonensis [2] and with Leishmania amazonensis [4] were 35.8 µM and 52 µM, respectively. Further, the selectivity ratio in [3] is greater than 4.19.
As to `Oc1cccc(/C=N/Nc2ncccn2)c1O`, the half-maximal cytotoxic concentration (CC50) at 72 h in data set [1] was greater than 150 µM. Moreover, the figures for the 50% inhibitory concentration (IC50) in the data set on Leishmania amazonensis [2] and in the data set with Leishmania amazonensis [4] were 14.5 µM and 7.95 µM, respectively. For the same molecule, in data set [3], the selectivity ratio is greater than 10.3.
Taken in the same sequence, the figures for `Oc1ccc(O)c(/C=N/Nc2ncccn2)c1` were 89.4 µM, 45.7 µM, 27.5 µM and 1.95.
`CCCCCCCCCCCCCCCCOP(=O)([O-])OCC[N+](C)(C)C` [MILTEFOSINE]: the 50% cytotoxic concentration (CC50) at 72 h in data set [1] is 132 µM. The same molecule had an IC50 in the data set with Leishmania amazonensis [2] of 4.05 µM. Also, the selectivity ratio in data set [3] is 32.6.
In turn, `O=C(N/N=C/c1ccc([N+](=O)[O-])o1)c1ncccn1` returned a half-maximal cytotoxic concentration (CC50) at 72 h in data set [1] of 29.1 µM. In addition, the figures for the half-maximal inhibitory concentration (IC50) in the data set with Leishmania amazonensis [2] and in the data set with Leishmania amazonensis [4] were 10.8 µM and 24.3 µM, respectively. Besides, the Activity in the data set on Leishmania amazonensis [5] came out at 49.75%; in the data set with Leishmania amazonensis [6] it was 36%; with Leishmania amazonensis [7], 74.11%; in the data set with Leishmania amazonensis [8], 55.48%; in the data set on Leishmania amazonensis [9] it was 47.66%; in the data set on Leishmania amazonensis [10], 54.94%. For the same molecule, the results for the Activity with Leishmania amazonensis [11] and in the data set with Leishmania amazonensis [12] were 143% and 82.9%, respectively. Besides, in [3], the selectivity ratio turned out to be 2.68.
On to `O=C(N/N=C/c1ccccc1O)c1ncccn1`, for which the CC50 at 72 h in data set [1] was greater than 150 µM. Moreover, the figures for the concentration for half-maximal inhibition (IC50) in the data set with Leishmania amazonensis [2] and with Leishmania amazonensis [4] were greater than 100 µM and 90 µM, respectively. Further, in data set [3], the selectivity ratio is greater than 1.5.
As for `O=C(N/N=C/c1cc(O)ccc1O)c1ncccn1`, the CC50 at 72 h in data set [1] was greater than 150 µM. Besides, the IC50 in the data set on Leishmania amazonensis [2] was 73.9 µM; with Leishmania amazonensis [4] it was 39.3 µM. In data set [3], the selectivity ratio was greater than 2.03.
`C(=N\Nc1ncccn1)/c1ccccn1` gave a CC50 at 72 h in [1] of 24.6 µM. The outcome in the data set with Leishmania amazonensis [13] was inactive. The values for the IC50 in the data set with Leishmania amazonensis [2] and in the data set on Leishmania amazonensis [4] were 4.07 µM and 9.66 µM, respectively. The selectivity ratio in [3] worked out at 6.04. Further, the Activity in the data set with Leishmania amazonensis [14] stood at 10.97%; in the data set on Leishmania amazonensis [15] it was 30.27%; in the data set on Leishmania amazonensis [16], 88.13%; in the data set with Leishmania amazonensis [17] it was 111.1%.
Molecule `Oc1ccccc1/C=N/Nc1ncccn1` registered a CC50 at 72 h in [1] of 84.2 µM. Further, the concentration for half-maximal inhibition (IC50) in the data set on Leishmania amazonensis [2] is 57.9 µM; in the data set with Leishmania amazonensis [4] it was 28.1 µM. Moreover, in data set [3], the selectivity ratio was found to be 1.45.
Taken in the same sequence, the figures for `O=C(N/N=C/c1ccc([N+](=O)[O-])s1)c1ncccn1` were greater than 150 µM, 8.41 µM, greater than 100 µM and greater than 17.8.
`O=C(N/N=C/c1ccccn1)c1ncccn1` showed a CC50 at 72 h in data set [1] greater than 150 µM. For the same molecule, the IC50 with Leishmania amazonensis [2] and with Leishmania amazonensis [4] was greater than 100 µM each time. Moreover, the selectivity ratio in data set [3] is greater than 1.5.
Take `O=C(N/N=C/c1ccc(O)cc1O)c1ncccn1`: the CC50 at 72 h in data set [1] is greater than 150 µM. Besides, the 50% inhibitory concentration (IC50) in the data set on Leishmania amazonensis [2] and in the data set on Leishmania amazonensis [4] was greater than 100 µM each time. The selectivity ratio in [3] was greater than 1.5.
